In one data set the target is recombinant human LDHA (Homo sapiens, UniProt P00338). As to the kind of experiment: recombinant human LDHA enzyme assay (lactate to pyruvate, NADH via diaphorase/resazurin).
The next data set has as its system cancer cell lines. In words: Lactate production assay, panel of cancer cell lines. Particulars: Homo sapiens, read-out: lactate production EC50 across cell lines.
Data set [1] deals with permeabilized HepG2 cells. In words: Seahorse XF96 permeabilized cells (mitochondrial function). In kind it is cell-based, human. As for the experimental part: HepG2 cells were seeded overnight in DMEM, 10% FBS, at 16,000 cells/well in an XF96 V3 PET plate. The next day, the medium was removed, and the wells were rinsed and filled with mitochondrial assay solution (MAS: 70 mM sucrose, 220 mM mannitol, 10 mM KH2PO4, 5 mM MgCl2, 2 mM HEPES, 1.0 mM EGTA) containing 10 mM pyruvate/10 mM malate/4 mM ADP and 2 nM XF Plasma Membrane Permeabilizer (PMP) (Seahorse Biosciences). […]. OCR and ECAR readings were determined for three cycles (two minutes mixing, two minutes measuring) after each compound addition.

Data set [2] in a line: rat plasma protein equilibrium dialysis assay. The data set is classed as in vitro ADME. Particulars: read-out: rat plasma protein binding (converted).
A further data set in a line: PK analysis in rats. In kind it is in vivo, male Sprague–Dawley rats. As to the method:
(§1) All studies were conducted after review by the Institutional Animal Care and Use Committee at GlaxoSmithKline (GSK) and in accordance with the GSK Policy on the Care, Welfare and Treatment of Laboratory Animals.

Another data set has as its system HCC1937 cells. In words: ECAR after mitochondrial inhibition, breast cancer lines and HCC1937 isogenic shRNA lines. The data set is classed as cell-based, human. As for the experimental part:
A2780 were obtained from the European Collection of Cell Cultures (ECACC, Porton Down, UK), IGROV-1 and U251 were from the National Cancer Institute (NCI, Bethesda, MD, USA), and all other cell lines were from American Type Culture Collection (ATCC, Manassas, VA, USA). The cell lines were authenticated as previously described. All cell lines were maintained in a 37°C 5% CO2-95% humidified air incubator. Breast cancer cell lines were cultured in DMEM (Life Technologies, Carlsbad, CA, USA) supplemented with 5% FBS (Sigma-Aldrich, St. Louis, MO, USA). All other cell lines were maintained in R10 medium (Roswell Park Memorial Institute medium (RPMI)-1640 (Life Technologies) supplemented with 10% FBS). MCF10A cells were supplemented with additional cholera toxin (100 ng/mL), hydrocortisone ([…]), insulin (10 μg/mL), and epidermal growth factor (EGF) (20 ng/mL). […]
For XF96 experiments breast cancer cells were seeded in DMEM without bicarbonate at 16,000/well in XF96 V3 PET plates (Seahorse Biosciences) coated with CellTak (BD Biosciences, San Jose, CA, USA). […] The medium was exchanged with DMEM without bicarbonate prior to readings on the XF96 Analyzer (Seahorse Biosciences).

A further data set relates to HepG2 cells. As to the kind of experiment: Oxygen consumption and extracellular acidification rates, HepG2 (Seahorse). The data set is classed as cell-based, human. Particulars: for EC50: Homo sapiens, 92 min, HepG2, 92 minutes after addition. As for the experimental part: (§2) One hundred twenty thousand Snu398 or HepG2 human hepatocellular carcinoma cells per well were plated in XF24 PS or XF96 PET cell culture microplates (Seahorse Biosciences, North Billerica, MA, USA) and allowed to attach and proliferate for 18 h. Cells were equilibrated with DMEM lacking bicarbonate (Seahorse Biosciences) supplemented with glucose at 37°C for 1 h in an incubator lacking CO2. The rate of change of dissolved O2 (oxygen consumption rate, OCR) and rate of change of pH (extracellular acidification rate, ECAR) in medium immediately surrounding the cells was measured in the XF24 Analyzer (Seahorse Biosciences) per manufacturer’s instructions. Compound doses were injected into the wells at the indicated times. For dose response curves, the OCR and ECAR levels obtained in each well before compound addition were subtracted from the values obtained 92 minutes after compound addition.
For XF96 experiments breast cancer cells were seeded in DMEM without bicarbonate at 16,000/well in XF96 V3 PET plates (Seahorse Biosciences) coated with CellTak (BD Biosciences, San Jose, CA, USA). […] HepG2 cells were seeded at 16K/well in XF96 V3 PET plates and left overnight for attachment. The medium was exchanged with DMEM without bicarbonate prior to readings on the XF96 Analyzer (Seahorse Biosciences).

For the next data set, the system named is PKM2 in Snu398 cells. As to the kind of experiment: PKM2 tetramerization (native gel, western immunoblotting). Particulars: Snu398, 6 h. The data set is classed as cell-based, human. As for the experimental part: One and a half million cells per well were plated in 6-well tissue culture plates in R10 medium and allowed to attach overnight. The following morning, cells were washed and medium replaced with 2 mL/well of low-glucose medium. DMSO control or the indicated doses of LDHA inhibitor dissolved in DMSO were added to the wells and cells were incubated at 37°C for 6 h. Following the incubation, cells were washed, scraped into 200 μl of distilled de-ionized water and homogenized on ice using OMNI THq homogenizer (Omni International, Kennesaw, GA, USA). Homogenates were cleared by centrifugation and protein concentration measured by bicinchoninic acid (BCA) assay (Thermo Fisher Scientific, Waltham, MA, USA). PK activity was determined using PK Activity kit (BioVision Research Products) per manufacturer’s instructions and normalized to protein concentration. For detection of PKM2 oligomerization, the same protein samples were separated by non-denaturing gel electrophoresis using the NativePAGE™ gel system (Life Technologies), transferred onto polyvinylidene difluoride (PVDF) membranes and subjected to western immunoblotting with anti-PKM2 antibody.

A further data set is described as follows: PK analysis in mice. In kind it is in vivo, male CD mice. Particulars: oral 100 mg/kg, detection limit 2.5 ng/mL. As for the experimental part:
as §1

Data set [3] deals with Snu398 cells. In words: 13C NMR spectroscopy of glucose consumption and lactate production, Snu398. In kind it is cell-based, human. As to the method:
After this pre-incubation, cells were washed in PBS and resuspended in 400 μL of glucose-free RPMI supplemented with 10% deuterium oxide, 11 mM D-(1,6-^13C2)glucose, and LDHA inhibitor or DMSO. An additional 600 μL of the same medium was gently added to top off the resuspended cells. Five mm NMR tubes with reduced sample depth (Shigemi Inc, Allison Park, PA, USA) were used to ensure that the cells remain inside the active volume of the receiver coil of the probe. […] . Prior to Fourier transformation, sensitivity and resolution were enhanced by applying an exponential line-broadening of 1 Hz over the first 32,000 data points and then zero filled to 256,000 data points. Spectra were analyzed using in-house data analysis software.

For data set [4], the system named is Snu398 cells. As to the kind of experiment: Oxygen consumption and extracellular acidification rates, Snu398 (Seahorse). In kind it is cell-based. To be noted: Homo sapiens, SNU-398, 92 min, Snu398, 92 minutes after addition. As for the experimental part: as §2

Read-outs that look alike come from different tables or passages of the source.

On to `COc1ncc(-c2ccc3c(Nc4cc(C(=O)O)cc(C5CCCC5)c4)c(S(=O)(=O)NC4CC4)cnc3c2)c(OC)n1` [Compound 2], for which the IC50 on recombinant human LDHA was determined as 16 ± 7 nM.

Turning to `COc1ncc(-c2ccc3c(Nc4cc(Oc5cc(F)cc(F)c5)cc(C(=O)O)c4)c(S(=O)(=O)NC4CC4)cnc3c2)c(OC)n1` [Compound 1], the EC50 with cancer cell lines is not below 400 nM; in the data set on HepG2 cells (read-out: ECAR change EC50) it was 600 ± 100 nM; with HepG2 cells (read-out: OCR change EC50), 900 ± 300 nM; in the data set with Snu398 cells [4] (read-out: ECAR change EC50), 600 ± 200 nM; with Snu398 cells [4] (read-out: OCR change EC50), 500 ± 300 nM. For the same molecule, in [1] (permeabilized HepG2, pyruvate/malate/ADP), the “concentrations with no changes in OCR or ECAR” value is given as “up to 3 μM”. For the same molecule, the “doses with direct mitochondrial effects (reduced mitochondrial respiration)” value in data set [1] (permeabilized HepG2, decreased OCR, increased ECAR) is not below 10 µM. Moreover, in [2], the fraction unbound is 0.012. This molecule showed a clearance in “PK analysis in rats” (male, Sprague-Dawley, rat, whole blood, IV infusion 0.25 mg/kg) of 69 mL/min/kg. For the same molecule, the blood compound level was not above 2.5 ng/mL in the data set “PK analysis in rats” (oral 50 mg/kg, detection limit 2.5 ng/mL) and not above 2.5 ng/mL in the data set “PK analysis in mice”. The “sensitivity (ECAR) with LDHA knockdown” value in the data set on HCC1937 cells (HCC1937 stable LDHA shRNA) is “did not change their sensitivity”. Further, in the data set on HCC1937 cells (HCC1937 stable LDHB shRNA), the “sensitivity (ECAR) with LDHB knockdown” value is “more sensitive”. Besides, the “oligomycin-dependent OCR (OCROLG)” value in the data set with HepG2 cells (10 μM) was “OCROLG was reduced”; with HepG2 cells (1 to 3 μM, glucose/glutamine medium) it was “increased oligomycin-dependent OCR”. Moreover, in the data set with PKM2 in Snu398 cells, the PKM2 tetramerization entry is listed as “dose dependently promoted formation of the active tetrameric form of PKM2”. The “(3-13C)lactate production” value with Snu398 cells [3] (Snu398, 10 μM) is given as “significantly slowed down lactate production”. In the data set with Snu398 cells [3] (Snu398 versus HepG2, 10 μM), the “D-(1,6-13C2)glucose consumption” value was “only affected glucose consumption in Snu398 cells”.

The values above are taken from article PMC4178217, “Quinoline 3-sulfonamides inhibit lactate dehydrogenase A and reverse aerobic glycolysis in cancer cells” (Cancer & Metabolism, 2013).
